From ChEMBL document CHEMBL1140998, “RNA bandages for photoregulating in vitro protein synthesis” (Bioorg Med Chem Lett, 2008) come the findings set out here.

The source made the active and inactive calls. The rule behind the calls is not given here.

The test system of experiment [1] is Aequorea victoria. As to the kind of experiment: Binding affinity to Aequorea victoria GFP mRNA (1-26) assessed as melting temperature.
In experiment [2] the test system is Aequorea victoria. As to the kind of experiment: Binding affinity to Aequorea victoria GFP mRNA (1-26) assessed as change in melting temperature.
The test system of experiment [3] is Aequorea victoria. As to the kind of experiment: Blockade of Aequorea victoria GFP mRNA (1-26) translation activity assessed as reduction in protein expression level at a drug:mRNA molar ratio of 2:1 measured prior to UV irradiation by gel electrophoresis. Also on record: scale not given: the % may be the effect or the level left.
Experiment [4] relates to Aequorea victoria. As to the kind of experiment: Blockade of Aequorea victoria GFP mRNA (1-26) translation activity assessed as reduction in protein expression level at a drug:mRNA molar ratio of 2:1 measured after UV irradiation by gel electrophoresis.
The test system of experiment [5] is Aequorea victoria. As to the kind of experiment: Blockade of Aequorea victoria GFP mRNA (1-26) translation activity assessed as reduction in protein expression level at a drug:mRNA molar ratio of 12:1 measured prior to UV irradiation by gel electrophoresis. More on the design: scale not given: the % may be the effect or the level left.
Experiment [6] concerns Aequorea victoria. As to the kind of experiment: Blockade of Aequorea victoria GFP mRNA (1-26) translation activity assessed as reduction in protein expression level measured after UV irradiation at a drug:mRNA molar ratio of 12:1 measured after UV irradiation by gel electrophoresis.

As a reminder, the ΔTm is the shift of the melting midpoint relative to a reference. For the compound `CC(OC(=O)NCCCCCCOC[C@H]1O[C@@H](n2ccc(N)nc2=O)[C@H](O)[C@@H]1OP(=O)(O)OC[C@H]1O[C@@H](n2ccc(=O)[nH]c2=O)[C@H](O)[C@@H]1OP(=O)(O)OC[C@H]1O[C@@H](n2cnc3c(N)ncnc32)[C@H](O)[C@@H]1OP(=O)(O)OC[C@H]1O[C@@H](n2cnc3c(=O)[nH]c(N)nc32)[C@H](O)[C@@H]1OP(=O)(O)OC[C@H]1O[C@@H](n2ccc(N)nc2=O)[C@H](O)[C@@H]1OP(=O)(O)OC[C@H]1O[C@@H](n2ccc(N)nc2=O)[C@H](O)[C@@H]1OP(=O)(O)OC[C@H]1O[C@@H](n2cnc3c(N)ncnc32)[C@H](O)[C@@H]1OP(=O)(O)OC[C@H]1O[C@@H](n2cnc3c(=O)[nH]c(N)nc32)[C@H](O)[C@@H]1OC[C@H]1O[C@@H](n2ccc(N)nc2=O)[C@H](O)[C@@H]1OC[C@H]1O[C@@H](n2ccc(=O)[nH]c2=O)[C@H](O)[C@@H]1O)c1cc(CN2C(=O)CC(SCCCO[C@H]3[C@@H](O)[C@H](n4ccc(=O)[nH]c4=O)O[C@@H]3COP(=O)(O)O[C@H]3[C@@H](O)[C@H](n4cnc5c(=O)[nH]c(N)nc54)O[C@@H]3COP(=O)(O)O[C@H]3[C@@H](O)[C@H](n4ccc(=O)[nH]c4=O)O[C@@H]3COP(=O)(O)O[C@H]3[C@@H](O)[C@H](n4cnc5c(=O)[nH]c(N)nc54)O[C@@H]3COP(=O)(O)O[C@H]3[C@@H](O)[C@H](n4cnc5c(=O)[nH]c(N)nc54)O[C@@H]3COP(=O)(O)O[C@H]3[C@@H](O)[C@H](n4ccc(=O)[nH]c4=O)O[C@@H]3COP(=O)(O)O[C@H]3[C@@H](O)[C@H](n4cnc5c(N)ncnc54)O[C@@H]3COP(=O)(O)O[C@H]3[C@@H](O)[C@H](n4ccc(N)nc4=O)O[C@@H]3CO[C@H]3[C@@H](O)[C@H](n4ccc(N)nc4=O)O[C@@H]3CO[C@H]3[C@@H](O)[C@H](n4cnc5c(=O)[nH]c(N)nc54)O[C@@H]3CO)C2=O)ccc1[N+](=O)[O-]` (some centres not stated), the Tm in the experiment with Aequorea victoria [1] amounted to 72.4 °C. The ΔTm with Aequorea victoria [2] is 20 °C. For the same compound, the Activity in the experiment with Aequorea victoria [3] is 100%. Also, the outcome in the experiment with Aequorea victoria [4] was Active.
Take `CC(OC(=O)NCCCCCCOC[C@H]1O[C@@H](n2ccc(N)nc2=O)[C@H](O)[C@@H]1OP(=O)(O)OC[C@H]1O[C@@H](n2ccc(=O)[nH]c2=O)[C@H](O)[C@@H]1OP(=O)(O)OC[C@H]1O[C@@H](n2cnc3c(N)ncnc32)[C@H](O)[C@@H]1OP(=O)(O)OC[C@H]1O[C@@H](n2cnc3c(=O)[nH]c(N)nc32)[C@H](O)[C@@H]1OP(=O)(O)OC[C@H]1O[C@@H](n2ccc(N)nc2=O)[C@H](O)[C@@H]1OP(=O)(O)OC[C@H]1O[C@@H](n2ccc(N)nc2=O)[C@H](O)[C@@H]1OP(=O)(O)OC[C@H]1O[C@@H](n2cnc3c(N)ncnc32)[C@H](O)[C@@H]1OP(=O)(O)OC[C@H]1O[C@@H](n2cnc3c(=O)[nH]c(N)nc32)[C@H](O)[C@@H]1OC[C@H]1O[C@@H](n2ccc(N)nc2=O)[C@H](O)[C@@H]1OC[C@H]1O[C@@H](n2ccc(=O)[nH]c2=O)[C@H](O)[C@@H]1O)c1cc(CN2C(=O)CC(SCCCO[C@H]3[C@@H](O)[C@H](n4ccc(=O)[nH]c4=O)O[C@@H]3COP(=O)(O)O[C@H]3[C@@H](O)[C@H](n4cnc5c(=O)[nH]c(N)nc54)O[C@@H]3COP(=O)(O)O[C@H]3[C@@H](O)[C@H](n4ccc(=O)[nH]c4=O)O[C@@H]3COP(=O)(O)O[C@H]3[C@@H](O)[C@H](n4cnc5c(=O)[nH]c(N)nc54)O[C@@H]3COP(=O)(O)O[C@H]3[C@@H](O)[C@H](n4cnc5c(=O)[nH]c(N)nc54)O[C@@H]3COP(=O)(O)O[C@H]3[C@@H](O)[C@H](n4ccc(=O)[nH]c4=O)O[C@@H]3COP(=O)(O)O[C@H]3[C@@H](O)[C@H](n4cnc5c(N)ncnc54)O[C@@H]3COP(=O)(O)O[C@H]3[C@@H](O)[C@H](n4ccc(N)nc4=O)O[C@@H]3CO)C2=O)ccc1[N+](=O)[O-]` (some centres not stated): the Tm in the experiment with Aequorea victoria [1] came to 62.2 °C. Also, the ΔTm with Aequorea victoria [2] came out at 32 °C. In addition, the Activity with Aequorea victoria [5] amounted to 10%. In addition, in the experiment on Aequorea victoria [6], the result was Active.
With `CC(OC(=O)NCCCCCCOC[C@H]1O[C@@H](n2ccc(N)nc2=O)[C@H](O)[C@@H]1OP(=O)(O)OC[C@H]1O[C@@H](n2ccc(N)nc2=O)[C@H](O)[C@@H]1OP(=O)(O)OC[C@H]1O[C@@H](n2cnc3c(N)ncnc32)[C@H](O)[C@@H]1OP(=O)(O)OC[C@H]1O[C@@H](n2cnc3c(=O)[nH]c(N)nc32)[C@H](O)[C@@H]1OP(=O)(O)OC[C@H]1O[C@@H](n2ccc(N)nc2=O)[C@H](O)[C@@H]1OP(=O)(O)OC[C@H]1O[C@@H](n2ccc(=O)[nH]c2=O)[C@H](O)[C@@H]1OP(=O)(O)OC[C@H]1O[C@@H](n2ccc(=O)[nH]c2=O)[C@H](O)[C@@H]1OP(=O)(O)OC[C@H]1O[C@@H](n2cnc3c(=O)[nH]c(N)nc32)[C@H](O)[C@@H]1OP(=O)(O)OC[C@H]1O[C@@H](n2cnc3c(=O)[nH]c(=O)[nH]c32)[C@H](O)[C@@H]1OP(=O)(O)OC[C@H]1O[C@@H](n2cnc3c(=O)[nH]c(=O)[nH]c32)[C@H](O)[C@@H]1OP(=O)(O)OC[C@H]1O[C@@H](n2ccc(=O)[nH]c2=O)[C@H](O)[C@@H]1OP(=O)(O)OC[C@H]1O[C@@H](n2ccc(N)nc2=O)[C@H](O)[C@@H]1O)c1cc(CN2C(=O)CC(SCCCO[C@H]3[C@@H](O)[C@H](n4cnc5c(=O)[nH]c(N)nc54)O[C@@H]3COP(=O)(O)O[C@H]3[C@@H](O)[C@H](n4cnc5c(N)ncnc54)O[C@@H]3COP(=O)(O)O[C@H]3[C@@H](O)[C@H](n4ccc(=O)[nH]c4=O)O[C@@H]3COP(=O)(O)O[C@H]3[C@@H](O)[C@H](n4ccc(N)nc4=O)O[C@@H]3CO[C@@H]3[C@H](O)[C@@H](COP(=O)(O)O[C@H]4[C@@H](O)[C@H](n5cnc6c(=O)[nH]c(N)nc65)O[C@@H]4COP(=O)(O)O[C@H]4[C@@H](O)[C@H](n5ccc(=O)[nH]c5=O)O[C@@H]4COP(=O)(O)O[C@H]4[C@@H](O)[C@H](n5cnc6c(=O)[nH]c(N)nc65)O[C@@H]4COP(=O)(O)O[C@H]4[C@@H](O)[C@H](n5cnc6c(=O)[nH]c(N)nc65)O[C@@H]4COP(=O)(O)O[C@H]4[C@@H](O)[C@H](n5ccc(=O)[nH]c5=O)O[C@@H]4COP(=O)(O)O[C@H]4[C@@H](O)[C@H](n5cnc6c(N)ncnc65)O[C@@H]4COP(=O)(O)O[C@H]4[C@@H](O)[C@H](n5ccc(N)nc5=O)O[C@@H]4CO)O[C@H]3n3ccc(=O)[nH]c3=O)C2=O)ccc1[N+](=O)[O-]` (some centres not stated), the Tm in the experiment with Aequorea victoria [1] turned out to be 81.2 °C. For the same compound, the ΔTm with Aequorea victoria [2] was 24 °C. The Activity in the experiment on Aequorea victoria [3] was 100%. Besides, the result with Aequorea victoria [4] was Active.
